Reference: the NIST ThermoML archive (doi:10.1021/je8003035)
± gives the expanded uncertainty stated by the source.

Key:
[1] = xn = mol fraction of the nth substance listed; settings: 1800 kPa, Liquid, Vibrating tube method
[2] = wn = mass fraction of the nth substance listed; settings: 1800 kPa, Liquid, Falling or rolling sphere viscometry
[3] = molar heat capacity at constant pressure; wn = mass fraction of the nth substance listed; settings: 1800 kPa, Liquid, Small sample (50 mg) DSC

O=[N+]([O-])[O-].[Li+] [lithium nitrate] + N
mass density ([1]; 293.15 K, x2 = 0.3501): 1188.8 ± 0.8 kg/m3
mass density ([1]; 293.15 K, x2 = 0.3988): 1134.2 ± 0.8 kg/m3
mass density ([1]; 293.15 K, x2 = 0.4499): 1078.1 ± 0.8 kg/m3
mass density ([1]; 293.15 K, x2 = 0.5): 1030 ± 0.8 kg/m3
mass density ([1]; 293.15 K, x2 = 0.55): 983.8 ± 0.7 kg/m3
mass density ([1]; 293.15 K, x2 = 0.5999): 939 ± 0.7 kg/m3
mass density ([1]; 293.15 K, x2 = 0.6505): 896.8 ± 0.7 kg/m3
mass density ([1]; 303.15 K, x2 = 0.3501): 1181.2 ± 0.8 kg/m3
mass density ([1]; 303.15 K, x2 = 0.3988): 1126.6 ± 0.8 kg/m3
mass density ([1]; 303.15 K, x2 = 0.4499): 1070.3 ± 0.8 kg/m3
mass density ([1]; 303.15 K, x2 = 0.5): 1022.1 ± 0.8 kg/m3
mass density ([1]; 303.15 K, x2 = 0.55): 975.4 ± 0.7 kg/m3
mass density ([1]; 303.15 K, x2 = 0.5999): 929.8 ± 0.7 kg/m3
mass density ([1]; 303.15 K, x2 = 0.6505): 886.9 ± 0.7 kg/m3
mass density ([1]; 313.15 K, x2 = 0.3501): 1173.8 ± 0.8 kg/m3
mass density ([1]; 313.15 K, x2 = 0.3988): 1119 ± 0.8 kg/m3
mass density ([1]; 313.15 K, x2 = 0.4499): 1062.6 ± 0.8 kg/m3
mass density ([1]; 313.15 K, x2 = 0.5): 1014.1 ± 0.8 kg/m3
mass density ([1]; 313.15 K, x2 = 0.55): 966.8 ± 0.7 kg/m3
mass density ([1]; 313.15 K, x2 = 0.5999): 920.6 ± 0.7 kg/m3
mass density ([1]; 313.15 K, x2 = 0.6505): 876.7 ± 0.7 kg/m3
mass density ([1]; 323.15 K, x2 = 0.3501): 1166.6 ± 0.8 kg/m3
mass density ([1]; 323.15 K, x2 = 0.3988): 1111.5 ± 0.8 kg/m3
mass density ([1]; 323.15 K, x2 = 0.4499): 1055.1 ± 0.8 kg/m3
mass density ([1]; 323.15 K, x2 = 0.5): 1006.1 ± 0.8 kg/m3
mass density ([1]; 323.15 K, x2 = 0.55): 958.1 ± 0.7 kg/m3
mass density ([1]; 323.15 K, x2 = 0.5999): 911.2 ± 0.7 kg/m3
mass density ([1]; 323.15 K, x2 = 0.6505): 866.6 ± 0.7 kg/m3
mass density ([1]; 333.15 K, x2 = 0.3501): 1159.7 ± 0.8 kg/m3
mass density ([1]; 333.15 K, x2 = 0.3988): 1104.1 ± 0.8 kg/m3
mass density ([1]; 333.15 K, x2 = 0.4499): 1047.5 ± 0.8 kg/m3
mass density ([1]; 333.15 K, x2 = 0.5): 998 ± 0.8 kg/m3
mass density ([1]; 333.15 K, x2 = 0.55): 949.4 ± 0.7 kg/m3
mass density ([1]; 333.15 K, x2 = 0.5999): 901.6 ± 0.7 kg/m3
mass density ([1]; 343.15 K, x2 = 0.3501): 1153.1 ± 0.8 kg/m3
mass density ([1]; 343.15 K, x2 = 0.3988): 1096.9 ± 0.8 kg/m3
mass density ([1]; 343.15 K, x2 = 0.4499): 1040 ± 0.8 kg/m3
mass density ([1]; 343.15 K, x2 = 0.5): 990.1 ± 0.8 kg/m3
mass density ([1]; 343.15 K, x2 = 0.55): 940.4 ± 0.8 kg/m3
mass density ([1]; 353.15 K, x2 = 0.3501): 1146.9 ± 0.8 kg/m3
mass density ([1]; 353.15 K, x2 = 0.3988): 1090.2 ± 0.8 kg/m3
mass density ([1]; 353.15 K, x2 = 0.4499): 1032.8 ± 0.8 kg/m3
mass density ([1]; 353.15 K, x2 = 0.5): 982.1 ± 0.8 kg/m3
viscosity ([2]; 293.2 K, w2 = 0.4): 22.7 ± 0.5 mPa·s
viscosity ([2]; 293.2 K, w2 = 0.4997): 7.1 ± 0.4 mPa·s
viscosity ([2]; 298.2 K, w2 = 0.4): 18.7 ± 0.5 mPa·s
viscosity ([2]; 298.2 K, w2 = 0.4997): 6.1 ± 0.4 mPa·s
viscosity ([2]; 303.2 K, w2 = 0.4): 15.5 ± 0.4 mPa·s
viscosity ([2]; 303.2 K, w2 = 0.4997): 5.3 ± 0.4 mPa·s
viscosity ([2]; 308.2 K, w2 = 0.4): 13 ± 0.4 mPa·s
viscosity ([2]; 308.2 K, w2 = 0.4997): 4.7 ± 0.4 mPa·s
viscosity ([2]; 313.2 K, w2 = 0.4): 11 ± 0.4 mPa·s
viscosity ([2]; 313.2 K, w2 = 0.4997): 4.1 ± 0.4 mPa·s
viscosity ([2]; 318.2 K, w2 = 0.4): 9.3 ± 0.4 mPa·s
viscosity ([2]; 318.2 K, w2 = 0.4997): 3.6 ± 0.4 mPa·s
viscosity ([2]; 323.2 K, w2 = 0.3): 18.6 ± 0.4 mPa·s
viscosity ([2]; 323.2 K, w2 = 0.4): 8 ± 0.4 mPa·s
viscosity ([2]; 323.2 K, w2 = 0.4997): 3.3 ± 0.4 mPa·s
viscosity ([2]; 328.1 K, w2 = 0.4997): 2.9 ± 0.4 mPa·s
viscosity ([2]; 328.2 K, w2 = 0.3): 15.9 ± 0.4 mPa·s
viscosity ([2]; 328.2 K, w2 = 0.4): 6.9 ± 0.4 mPa·s
viscosity ([2]; 333.1 K, w2 = 0.4997): 2.6 ± 0.4 mPa·s
viscosity ([2]; 333.2 K, w2 = 0.3): 13.8 ± 0.4 mPa·s
viscosity ([2]; 333.2 K, w2 = 0.4): 6.1 ± 0.4 mPa·s
viscosity ([2]; 338 K, w2 = 0.4997): 2.4 ± 0.4 mPa·s
viscosity ([2]; 338.1 K, w2 = 0.3): 11.9 ± 0.4 mPa·s
viscosity ([2]; 338.1 K, w2 = 0.4): 5.4 ± 0.4 mPa·s
viscosity ([2]; 343 K, w2 = 0.4997): 2.2 ± 0.4 mPa·s
viscosity ([2]; 343.1 K, w2 = 0.3): 10.9 ± 0.4 mPa·s
viscosity ([2]; 343.1 K, w2 = 0.4): 4.8 ± 0.4 mPa·s
viscosity ([2]; 348.1 K, w2 = 0.3): 9 ± 0.4 mPa·s
viscosity ([2]; 348.2 K, w2 = 0.4): 4.3 ± 0.4 mPa·s
viscosity ([2]; 353.1 K, w2 = 0.4): 3.8 ± 0.4 mPa·s
viscosity ([2]; 353.2 K, w2 = 0.3): 7.9 ± 0.4 mPa·s
molar heat capacity at constant pressure ([3]; 312.65 K, w2 = 0.5): 85.88 ± 1.3 J/K/mol
molar heat capacity at constant pressure ([3]; 312.67 K, w2 = 0.3501): 84.48 ± 1.3 J/K/mol
molar heat capacity at constant pressure ([3]; 312.67 K, w2 = 0.4003): 84.65 ± 1.3 J/K/mol
molar heat capacity at constant pressure ([3]; 312.67 K, w2 = 0.4499): 85.21 ± 1.3 J/K/mol
molar heat capacity at constant pressure ([3]; 312.67 K, w2 = 0.5497): 84.75 ± 1.3 J/K/mol
molar heat capacity at constant pressure ([3]; 322.56 K, w2 = 0.5): 86.67 ± 1.3 J/K/mol
molar heat capacity at constant pressure ([3]; 322.57 K, w2 = 0.3501): 85.61 ± 1.3 J/K/mol
molar heat capacity at constant pressure ([3]; 322.58 K, w2 = 0.4003): 85.8 ± 1.3 J/K/mol
molar heat capacity at constant pressure ([3]; 322.58 K, w2 = 0.4499): 86.2 ± 1.3 J/K/mol
molar heat capacity at constant pressure ([3]; 322.58 K, w2 = 0.5497): 85.55 ± 1.3 J/K/mol
molar heat capacity at constant pressure ([3]; 332.46 K, w2 = 0.5): 87.54 ± 1.4 J/K/mol
molar heat capacity at constant pressure ([3]; 332.48 K, w2 = 0.3501): 86.65 ± 1.3 J/K/mol
molar heat capacity at constant pressure ([3]; 332.48 K, w2 = 0.4499): 87.22 ± 1.3 J/K/mol
molar heat capacity at constant pressure ([3]; 332.48 K, w2 = 0.5497): 86.09 ± 1.3 J/K/mol
molar heat capacity at constant pressure ([3]; 332.49 K, w2 = 0.4003): 86.7 ± 1.3 J/K/mol
molar heat capacity at constant pressure ([3]; 342.37 K, w2 = 0.5): 88.33 ± 1.4 J/K/mol
molar heat capacity at constant pressure ([3]; 342.38 K, w2 = 0.3501): 87.52 ± 1.4 J/K/mol
molar heat capacity at constant pressure ([3]; 342.38 K, w2 = 0.5497): 86.97 ± 1.3 J/K/mol
molar heat capacity at constant pressure ([3]; 342.39 K, w2 = 0.4003): 87.51 ± 1.4 J/K/mol
molar heat capacity at constant pressure ([3]; 342.39 K, w2 = 0.4499): 88.09 ± 1.4 J/K/mol
molar heat capacity at constant pressure ([3]; 352.29 K, w2 = 0.3501): 88.22 ± 1.4 J/K/mol
molar heat capacity at constant pressure ([3]; 352.29 K, w2 = 0.4003): 88.07 ± 1.4 J/K/mol
molar heat capacity at constant pressure ([3]; 352.31 K, w2 = 0.4499): 88.59 ± 1.4 J/K/mol
